# Assay results as given in ChEMBL document CHEMBL1949629, “Discovery of a second generation agonist of the orphan G-protein coupled receptor GPR119 with an improved profile” (Bioorg Med Chem Lett, 2012).
# Activity calls are given as the source filed them. The calls are words filed in the database; no cut-off is given here.
# What was measured:
# [1] = Solubility in 20% HPbetaCD after 24 hrs; type: physicochemical
# [2] = Half life cynomolgus monkey at 25 to 400 mg administered once daily; type: ADME, organism-based, Macaca fascicularis; conditions: in vivo
# [3] = Solubility in water at pH 2; type: physicochemical
# [4] = Solubility in water at pH 7; type: physicochemical; conditions: buffer
# [5] = Permeability from apical to basolateral side of human Caco2 cells; type: ADME, cell-based; conditions: Caco-2, read-out: permeability
# [6] = Permeability from basolateral to apical side of human Caco2 cells; type: ADME, cell-based; conditions: Caco-2, read-out: permeability
# [7] = Half life in human liver microsomes; type: ADME, Microsome
# [8] = Half life in rat liver microsomes; type: ADME, Microsome
# [9] = organism: Rattus norvegicus; assay: Clearance in rat relative to hepatic blood flow; type: ADME, organism-based, Liver; conditions: in vivo
# [10] = organism: Canis familiaris; assay: Clearance in dog relative to hepatic blood flow; type: ADME, organism-based, Canis lupus familiaris, Liver; conditions: in vivo
# [11] = Elimination half life in rat; conditions: in vivo
# [12] = Elimination half life in dog; conditions: in vivo
# [13] = molecular target: Voltage-gated inwardly rectifying potassium channel KCNH2 (Homo sapiens, UniProt Q12809); assay: Inhibition of human ERG
# [14] = tested on: Cavia porcellus; assay: Toxicity in guinea pig assessed as mean arterial blood pressure change at 5 mg/kg, iv; type: organism-based; set-up: dose 5 mg/kg, route intravenous; conditions: in vivo
# [15] = tested on: Cavia porcellus; assay: Toxicity in guinea pig assessed as change in heart rate at 5 mg/kg, iv; type: organism-based; set-up: dose 5 mg/kg, route intravenous; conditions: in vivo
# [16] = tested on: Cavia porcellus; assay: Toxicity in guinea pig assessed as change in ECG at 5 mg/kg, iv; type: organism-based; set-up: dose 5 mg/kg, route intravenous; conditions: in vivo
# [17] = tested on: Rattus norvegicus; assay: Toxicity in rat assessed as developmental abnormality dosed for 14 days; type: organism-based; conditions: in vivo, 336 h
# [18] = tested on: Canis familiaris; assay: Toxicity in dog assessed as developmental abnormality dosed for 7 days; type: organism-based, Canis lupus familiaris; conditions: in vivo, 168 h
# [19] = Clearance in iv dosed Sprague-Dawley rat; type: ADME, organism-based; conditions: in vivo
# [20] = Clearance in iv dosed Beagle dog; type: ADME, organism-based, Canis lupus familiaris; conditions: in vivo
# [21] = Clearance in iv dosed Cynomolgus monkey; type: ADME, organism-based, Macaca fascicularis; conditions: in vivo
# [22] = tested on: Rattus norvegicus; assay: Drug metabolism in po dosed rat assessed as 5-methoxy-6-(2-methyl-6-(methylsulfonyl)pyridin-3-ylamino)pyrimidin-4-ol formation; type: ADME, organism-based; conditions: in vivo
# [23] = tested on: Rattus norvegicus; assay: Drug metabolism in po dosed rat assessed as 5-methoxy-N-(2-methyl-6-(methylsulfonyl)pyridin-3-yl)-6-(piperidin-4-yloxy)pyrimidin-4-amine formation; type: ADME, organism-based; conditions: in vivo
# [24] = tested on: Rattus norvegicus; assay: Drug metabolism in po dosed rat assessed as isopropyl 2-hydroxy-4-(5-methoxy-6-(2-methyl-6-(methylsulfonyl)pyridin-3-ylamino)pyrimidin-4-yloxy)piperidine-1-carboxylate formation; type: ADME, organism-based; conditions: in vivo
# [25] = molecular target: Cytochrome P450 2C9 (Homo sapiens, UniProt P11712); assay: Inhibition of CYP2C9; type: ADME
# [26] = tested on: Mus musculus; assay: Antidiabetic activity in fasted C57bl/6j mouse assessed as reduction in AUC of glucose at 1 mg/kg, po administered 30 mins prior glucose challenge by oral glucose tolerance test; type: functional, organism-based; set-up: dose 1 mg/kg
# [27] = tested on: Mus musculus; assay: Antidiabetic activity in fasted C57bl/6j mouse assessed as reduction in AUC of glucose at 10 mg/kg, po administered 30 mins prior glucose challenge by oral glucose tolerance test; type: functional, organism-based; set-up: dose 10 mg/kg
# [28] = tested on: Rattus norvegicus; assay: Antidiabetic activity in fasted Sprague-Dawley rat assessed as reduction in AUC of glucose at 3 mg/kg, po administered 30 mins prior glucose challenge by oral glucose tolerance test; type: functional, organism-based; set-up: dose 3 mg/kg
# [29] = tested on: Rattus norvegicus; assay: Antidiabetic activity in fasted Sprague-Dawley rat assessed as reduction in AUC of glucose at 30 mg/kg, po administered 30 mins prior glucose challenge by oral glucose tolerance test; type: functional, organism-based; set-up: dose 30 mg/kg
# [30] = Tmax in C57Bl mouse at 10 mg/kg, po; type: ADME, organism-based; set-up: dose 10 mg/kg, route oral; conditions: in vivo
# [31] = Tmax in Sprague-Dawley rat at 10 mg/kg, po; type: ADME, organism-based; set-up: dose 10 mg/kg, route oral; conditions: in vivo
# [32] = Tmax in Beagle dog at 7.85 mg/kg, po; type: ADME, organism-based, Canis lupus familiaris; set-up: dose 7.85 mg/kg, route oral; conditions: in vivo
# [33] = Tmax in cynomolgus monkey at 10 mg/kg, po; type: ADME, organism-based, Macaca fascicularis; set-up: dose 10 mg/kg, route oral; conditions: in vivo
# [34] = Cmax in C57Bl mouse at 10 mg/kg, po; type: ADME, organism-based; set-up: dose 10 mg/kg, route oral; conditions: in vivo
# [35] = Cmax in Sprague-Dawley rat at 10 mg/kg, po; type: ADME, organism-based; set-up: dose 10 mg/kg, route oral; conditions: in vivo
# [36] = Cmax in Beagle dog at 7.85 mg/kg, po; type: ADME, organism-based, Canis lupus familiaris; set-up: dose 7.85 mg/kg, route oral; conditions: in vivo
# [37] = Cmax in cynomolgus monkey at 10 mg/kg, po; type: ADME, organism-based, Macaca fascicularis; set-up: dose 10 mg/kg, route oral; conditions: in vivo
# [38] = AUC (0 to infinity) in C57Bl mouse at 10 mg/kg, po; type: ADME, organism-based; set-up: time infinity, dose 10 mg/kg, route oral; conditions: plasma
# [39] = AUC (0 to infinity) in Sprague-Dawley rat at 10 mg/kg, po; type: ADME, organism-based; set-up: time infinity, dose 10 mg/kg, route oral; conditions: plasma
# [40] = AUC (0 to infinity) in Beagle dog at 7.85 mg/kg, po; type: ADME, organism-based, Canis lupus familiaris; set-up: time infinity, dose 7.85 mg/kg, route oral; conditions: plasma
# [41] = AUC (0 to infinity) in cynomolgus monkey at 10 mg/kg, po; type: ADME, organism-based, Macaca fascicularis; set-up: time infinity, dose 10 mg/kg, route oral; conditions: plasma
# [42] = Half life in C57Bl mouse at 10 mg/kg, po; conditions: in vivo
# [43] = Half life in Sprague-Dawley rat at 10 mg/kg, po; conditions: in vivo
# [44] = Half life in cynomolgus monkey at 10 mg/kg, po; conditions: in vivo
# [45] = Mean residence time in C57Bl mouse at 10 mg/kg, po; type: ADME, organism-based; set-up: dose 10 mg/kg, route oral; conditions: in vivo
# [46] = Mean residence time in Sprague-Dawley rat at 10 mg/kg, po; type: ADME, organism-based; set-up: dose 10 mg/kg, route oral; conditions: in vivo
# [47] = Mean residence time in Beagle dog at 7.85 mg/kg, po; type: ADME, organism-based, Canis lupus familiaris; set-up: dose 7.85 mg/kg, route oral; conditions: in vivo
# [48] = Mean residence time in cynomolgus monkey at 10 mg/kg, po; type: ADME, organism-based, Macaca fascicularis; set-up: dose 10 mg/kg, route oral; conditions: in vivo
# [49] = tested on: Mus musculus; assay: Antidiabetic activity in ob/ob mouse assessed as blood glucose AUC at 3 mg/kg administered 60 mins prior glucose challenge by oral glucose tolerance test relative to vehicle treated control; type: functional
# [50] = tested on: Rattus norvegicus; assay: Antidiabetic activity in Sprague-Dawley rat assessed as blood glucose AUC at 3 mg/kg administered 60 mins prior glucose challenge by oral glucose tolerance test relative to vehicle treated control; type: functional
# [51] = tested on: Rattus norvegicus; assay: Antidiabetic activity in ZDF rat assessed as blood glucose AUC at 3 mg/kg administered 60 mins prior glucose challenge by oral glucose tolerance test relative to vehicle treated control; type: functional
# [52] = tested on: Cynomolgus monkey; assay: Antidiabetic activity in cynomolgus monkey assessed as blood glucose AUC at 3 mg/kg administered 60 mins prior glucose challenge by oral glucose tolerance test relative to vehicle treated control; type: functional, Macaca fascicularis
# [53] = tested on: Rattus norvegicus; assay: Drug concentration in Sprague-Dawley rat measured at initiation of the oral glucose tolerance test at 3 mg/kg; type: ADME, organism-based; set-up: dose 3 mg/kg, route oral; conditions: in vivo
# [54] = tested on: Rattus norvegicus; assay: Drug concentration in ZDF rat measured at initiation of the oral glucose tolerance test at 3 mg/kg; type: ADME, organism-based; set-up: dose 3 mg/kg, route oral; conditions: in vivo
# [55] = tested on: Cynomolgus monkey; assay: Drug concentration in cynomolgus monkey measured at initiation of the oral glucose tolerance test at 3 mg/kg; type: ADME, organism-based, Macaca fascicularis; set-up: dose 3 mg/kg, route oral; conditions: in vivo
# [56] = in vivo; conditions: beagle, dog, po, 7.85 mg/kg
# Description: Half life in Beagle dog at 7.85 mg/kg, po
# Sequence of Voltage-gated inwardly rectifying potassium channel KCNH2 (Q12809 whole entry): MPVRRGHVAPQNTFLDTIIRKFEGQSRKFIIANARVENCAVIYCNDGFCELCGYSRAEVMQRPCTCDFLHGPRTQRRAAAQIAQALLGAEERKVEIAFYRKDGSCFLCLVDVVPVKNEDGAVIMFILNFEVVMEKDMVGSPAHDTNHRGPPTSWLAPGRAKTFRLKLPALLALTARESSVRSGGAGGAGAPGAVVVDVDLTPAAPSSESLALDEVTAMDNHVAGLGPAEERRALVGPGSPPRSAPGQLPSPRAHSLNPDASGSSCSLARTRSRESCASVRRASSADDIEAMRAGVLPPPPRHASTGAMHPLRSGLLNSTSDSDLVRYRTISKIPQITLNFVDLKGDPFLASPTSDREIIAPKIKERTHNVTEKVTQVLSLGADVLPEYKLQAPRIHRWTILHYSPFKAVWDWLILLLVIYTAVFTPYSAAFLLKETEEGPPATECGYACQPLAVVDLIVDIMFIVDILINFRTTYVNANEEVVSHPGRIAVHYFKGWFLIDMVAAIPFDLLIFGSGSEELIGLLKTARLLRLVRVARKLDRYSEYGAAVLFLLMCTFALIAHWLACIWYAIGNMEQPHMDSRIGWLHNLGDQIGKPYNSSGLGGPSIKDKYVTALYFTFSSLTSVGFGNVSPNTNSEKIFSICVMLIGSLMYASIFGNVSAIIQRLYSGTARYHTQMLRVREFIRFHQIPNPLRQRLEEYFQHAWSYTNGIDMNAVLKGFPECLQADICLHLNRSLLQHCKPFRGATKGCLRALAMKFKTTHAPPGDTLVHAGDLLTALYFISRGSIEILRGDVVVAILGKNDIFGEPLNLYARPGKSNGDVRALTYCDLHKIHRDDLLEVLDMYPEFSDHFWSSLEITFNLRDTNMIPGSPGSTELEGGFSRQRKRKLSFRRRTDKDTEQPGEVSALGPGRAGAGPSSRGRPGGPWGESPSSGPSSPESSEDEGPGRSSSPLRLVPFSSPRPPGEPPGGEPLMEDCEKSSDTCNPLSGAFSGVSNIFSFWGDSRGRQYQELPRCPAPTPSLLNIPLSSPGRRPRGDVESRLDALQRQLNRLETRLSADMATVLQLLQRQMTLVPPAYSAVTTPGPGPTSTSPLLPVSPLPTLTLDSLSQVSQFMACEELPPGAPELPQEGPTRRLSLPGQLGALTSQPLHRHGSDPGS
# Sequence of Cytochrome P450 2C9 (P11712 whole entry): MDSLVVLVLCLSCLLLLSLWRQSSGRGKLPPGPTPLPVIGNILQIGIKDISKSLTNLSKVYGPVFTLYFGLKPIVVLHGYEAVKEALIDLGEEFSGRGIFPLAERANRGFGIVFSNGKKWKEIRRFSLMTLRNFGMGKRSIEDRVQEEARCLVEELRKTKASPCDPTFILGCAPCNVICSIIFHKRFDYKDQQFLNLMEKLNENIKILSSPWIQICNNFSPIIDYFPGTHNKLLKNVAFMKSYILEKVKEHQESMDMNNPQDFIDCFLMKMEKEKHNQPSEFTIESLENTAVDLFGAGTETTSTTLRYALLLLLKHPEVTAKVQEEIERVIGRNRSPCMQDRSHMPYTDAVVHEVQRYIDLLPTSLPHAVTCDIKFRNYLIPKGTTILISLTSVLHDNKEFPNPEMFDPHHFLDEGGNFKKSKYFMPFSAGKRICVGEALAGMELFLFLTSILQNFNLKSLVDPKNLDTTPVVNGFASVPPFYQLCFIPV
smiles,measurement,setting,value
Cc1c(Nc2ccc(S(C)(=O)=O)nc2)ncnc1OC1CCN(C(=O)OC(C)C)CC1,solubility at 24 h,[1],21.3 mg/mL
Cc1cc(S(C)(=O)=O)ncc1Oc1ncnc(OC2CCN(C(=O)OC(C)C)CC2)c1C,solubility at 24 h,[1],13.1 mg/mL
Cc1cc(S(C)(=O)=O)ncc1Nc1ncnc(OC2CCN(C(=O)OC(C)C)CC2)c1C,solubility at 24 h,[1],20.4 mg/mL
CCc1c(Nc2ccc(S(C)(=O)=O)nc2C)ncnc1OC1CCN(C(=O)OC(C)C)CC1,solubility at 24 h,[1],24.5 mg/mL
Cc1nc(S(C)(=O)=O)ccc1Nc1ncnc(OC2CCN(C(=O)OC(C)C)CC2)c1C1CC1,solubility at 24 h,[1],17.7 mg/mL
Cc1nc(S(C)(=O)=O)ccc1Nc1ncnc(OC2CCN(C(=O)OC(C)C)CC2)c1C(F)F,solubility at 24 h,[1],17.3 mg/mL
CCOc1c(Nc2ccc(S(C)(=O)=O)nc2C)ncnc1OC1CCN(C(=O)OC(C)C)CC1,solubility at 24 h,[1],3.3 mg/mL
Cc1nc(S(C)(=O)=O)ccc1Nc1ncnc(OC2CCN(C(=O)OC(C)C)CC2)c1OC(F)F,solubility at 24 h,[1],7.8 mg/mL
Cc1nc(S(C)(=O)=O)ccc1Nc1ncnc(OC2CCN(C(=O)OC(C)C)CC2)c1C#N,solubility at 24 h,[1],17 mg/mL
CC(CO)OC(=O)N1CCC(Oc2ncnc3c2cnn3-c2ccc(S(C)(=O)=O)cc2F)CC1 (stereo not given),half-life,[2],41 h
COc1c(Nc2ccc(S(C)(=O)=O)nc2C)ncnc1OC1CCN(C(=O)OC(C)C)CC1 [ADP-597],solubility,[3],0.31 mg/mL
same,solubility,[4],0.11 mg/mL
same,Papp A→B,[5],26 ×10⁻⁶ cm/s
same,Papp B→A,[6],15 ×10⁻⁶ cm/s
same,half-life,[7],> 1 h
same,half-life,[8],> 1 h
same,CL,[9],16%
same,CL,[10],16%
same,half-life,[11],3 h
same,half-life,[12],7 h
same,IC50,[13],> 10 µM
same,Activity,[14],Non-toxic
same,Activity,[15],Non-toxic
same,Activity,[16],Non-toxic
same,Activity,[17],Non-toxic
same,Activity,[18],Non-toxic
same,clearance,[19],9.67 mL/min/kg
same,clearance,[20],0.667 mL/min/kg
same,clearance,[21],1.83 mL/min/kg
same,Drug metabolism,[22],Active
same,Drug metabolism,[23],Active
same,Drug metabolism,[24],Active
same,IC50,[25],8 µM
same,solubility at 24 h,[1],33 mg/mL
same,Activity,[26],Active
same,Activity,[27],Active
same,Activity,[28],Active
same,Activity,[29],Active
same,Tmax,[30],2 h
same,Tmax,[31],1 h
same,Tmax,[32],8 h
same,Tmax,[33],6 h
same,Cmax,[34],25800 ng/mL
same,Cmax,[35],1390 ng/mL
same,Cmax,[36],1980 ng/mL
same,Cmax,[37],4800 ng/mL
same,AUC(0-inf),[38],320000 ng·h/mL
same,AUC(0-inf),[39],12500 ng·h/mL
same,AUC(0-inf),[40],43700 ng·h/mL
same,AUC(0-inf),[41],64200 ng·h/mL
same,half-life,[42],5.9 h
same,half-life,[43],4.3 h
same,half-life,[44],4.4 h
same,MRT,[45],7.9 h
same,MRT,[46],6.8 h
same,MRT,[47],10.9 h
same,MRT,[48],8.4 h
same,Activity,[49],78.4%
same,Activity,[50],85.1%
same,Activity,[51],72.8%
same,Activity,[52],82.8%
same,Drug uptake,[53],482 ng/mL
same,Drug uptake,[54],1592 ng/mL
same,Drug uptake,[55],112 ng/mL
same,half-life,[56],10.9 h
